The record followed here is patent US11542508B2, “Isolated polynucleotides and polypeptides and methods of using same for expressing an expression product of interest” (priority 2016, dated 2023).

The subject of one assay is aimX. Description: RNA-seq / differential expression analysis during phi3T infection. Format: cell-based. The settings on record: medium supplemented by 1 μM peptide. Here is the method: To determine the difference in gene expression with and without the peptide, bacteria were incubated for 1 hour in LB medium supplemented with 0.1 mM MnCl2 and 5 mM MgCl2 in the presence or absence of 1 μM synthesized SAIRGA (SEQ ID NO: 269) peptide. Following, the bacteria were infected with phi3T (MOI=0.1); and cell pellets were collected at 0, 5, 10 and 20 minutes post infection.
RNA extraction and RNA-seq was performed as described in Dar et al.^33. Briefly, pellets were lysed using the Fastprep homogenizer (MP Biomedicals, Santa Ana, Calif.) and RNA was extracted with the FastRNA PRO blue kit (MP Biomedicals, 116025050) according to manufacturer's instructions. […]
RNA-seq libraries were sequenced using the Illumina NextSeq500 platform. Sequenced reads were demultiplexed and adapters were trimmed using fastx_clipper with default parameters. Reads were mapped to the reference genomes (gene annotation and sequences were downloaded from Genbank: NC_000964 for Bacillus subtilis str. 168, AP012496 for Bacillus subtilis BEST7003) using NovoAlign (Novocraft) V3.02.02 with default parameters. […]
Reads per gene were calculated for each biological replicate at 20 minutes post infection with and without the synthetic peptide and normalized relative to the total mapped reads hitting the phage genome in each replicate. […]

In the next assay the test system is phi3T. Description: Growth dynamics of phage-infected cultures (phi3T infection of B. subtilis 168). Format: cell-based. Here is the method:
Specifically, overnight cultures of B. subtilis strain 168 were diluted 1:50 in LB media supplemented with 0.1 mM MnCl2 and 5 mM MgCl2, and incubated at 37° C. with shaking until reaching optical density (O.D) 600 nm=0.5. Phages (phi29, phi105, rho14 or phi3T) were added to the bacterial culture at MOI=1 and incubated for 3 hours. The media were centrifuged at 4000 rpm for 10 minutes at 4° C. and the supernatant was filtered with 0.2 μm filer (GE Healthcare Life Sciences, Whatman, CAT #10462200). Phages and large molecules were further filtered out from the media by using Amicon Ultra centrifugal filters at a cutoff of 3,000 NMWL (3 kDa) (Milipore, CAT #UFC900324). A plaque assay was performed in order to verify that no phages were left in the medium.
7.5 mg (per reaction) of Proteinase K-Agarose from Tritirachium album (Sigma, CAT #P9290) were washed twice with 750 μl of sterile water and then resuspended with 750 μl of LB supplemented with 0.1 mM MnCl2 and 5 mM MgCl2. Following, the tubes were centrifuged again and the supernatant was discarded. 1.5 ml of phi3T-derived conditioned medium or control medium was added to a tube containing the washed proteinase K. The media were incubated for 2 hours at 37° C. with the proteinase K. The media were centrifuged and the supernatants were collected for the infection assay.
(§1) Overnight cultures of bacteria were diluted 1:100 in LB media and incubated at 37° C. with shaking until reaching O.D 600 nm=0.1. The bacterial culture was centrifuged at 4000 rpm for 10 minutes at room temperature. The supernatant was discarded and the pellet was resuspended in LB medium supplemented with 0.1 mM MnCl2 and 5 mM MgCl2 at 10% of the initial volume. The concentrated bacterial culture was added to conditioned medium or medium supplemented with synthesized arbitrium peptide in a ratio of 1:9 (bacteria to medium) and incubated for 1 hour at room temperature. Following, the culture was infected with phages at MOI=0.1. Optical density measurements at a wavelength of 600 nm were taken using a TECAN Infinite 200 plate reader in a 96-wells plate.

Another assay concerns spBeta. Description: Growth dynamics of phage-infected cultures (spBeta infection of B. subtilis BEST7003). The class given is cell-based. To be noted: B. subtilis BEST7003 infected by spBeta at MOI=0.1, LB supplemented with synthesized peptide. How it is done: as §1
A further assay has as its target AimR (Bacillus phage phi3T, UniProt P0DOE3). As to the kind of experiment: Analytical gel filtration of purified AimR (oligomeric state). On the set-up: made in house; host or cells: E. coli BL21(DE3), pET28a. To be noted: AimR:SAIRGA 1:2, AimR:GMPRGA 1:1 molar ratio. Here is the method: Following, AimR was expressed in E. coli BL21(DE3) cells with a C-terminal 6× His-tag. Expression was performed at 15° C. for about ˜18 hours using 200 μM IPTG (Isopropyl β-D-1-thiogalactopyranoside) as an inducer. The cells pellet was resuspended in lysis buffer [50 mM Tris pH 8, 0.3M NaCl, 20 mM Imidazole, 2 mM DTT, 0.2 mg/ml Lysozyme, 1 μg/ml DNAse, protease inhibitor cocktail (Calbiochem)], disrupted by a cell disrupter at 4° C. and clarified at 15,000 g for 30 minutes. The clarified lysate was loaded onto a HisTrap_FF_5 ml column (GE Healthcare) and washed with buffer containing 50 mM Tris pH 8, 0.3 M NaCl, 20 mM imidazole and 2 mM DTT. AimR was eluted from the column in one step with the same buffer containing 0.5 M imidazole. Fractions containing AimR were pooled and injected to a size exclusion column (HiLoad_16/60_Superdex_200_prepgrade,GE_Healthcare) equilibrated with 20 mM Tris pH 8, 0.3 M NaCl, 2 mM TCEP. Fractions containing pure AimR were pooled and flash frozen in aliquots using liquid nitrogen.
Pure AimR was injected to an analytical gel filtration column (Superdex_200_Increase_10/30 GL, GE Healthcare) equilibrated with buffer containing 20 mM Tris pH 8, 0.3 M NaCl, 2 mM TCEP. […]

Chain of AimR (P0DOE3 whole entry): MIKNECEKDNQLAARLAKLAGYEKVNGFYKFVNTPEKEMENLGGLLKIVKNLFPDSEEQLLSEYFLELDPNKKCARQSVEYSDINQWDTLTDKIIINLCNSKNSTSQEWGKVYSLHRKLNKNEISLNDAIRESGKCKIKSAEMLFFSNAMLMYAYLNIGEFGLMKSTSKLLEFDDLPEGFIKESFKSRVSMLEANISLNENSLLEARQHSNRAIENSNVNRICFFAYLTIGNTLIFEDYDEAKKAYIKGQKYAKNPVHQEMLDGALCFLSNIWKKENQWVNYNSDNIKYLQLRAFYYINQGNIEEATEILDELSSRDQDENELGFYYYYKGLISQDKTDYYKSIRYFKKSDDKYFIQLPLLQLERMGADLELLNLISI

On to `CC[C@H](C)[C@H](NC(=O)[C@H](C)NC(=O)[C@@H](N)CO)C(=O)N[C@@H](CCCNC(=N)N)C(=O)NCC(=O)N[C@@H](C)C(=O)O` [SAIRGA, Ser-Ala-Ile-Arg-Gly-Ala], for which the “reduction of aimX expression” value in the assay with aimX was “more than 20 fold”. The “effect on the phage infection dynamics (culture lysis, growth curve)” value with phi3T (B. subtilis 168 infected by phi3T at MOI=0.1, LB supplemented with synthesized peptide) was “reduced culture lysis”. Further, the “peptide concentration of maximal effect on the culture growth curve” value with phi3T (B. subtilis 168 infected by phi3T at MOI=0.1, effect saturated above) is given as 500 nM. Besides, the “effect on lysogeny / infection dynamics of spBeta” value in the assay with spBeta is listed as “had no effect on the infection dynamics of spBeta”. Also, the “AimR oligomeric state (migration in gel filtration column)” value on AimR is listed as “strictly migrated as a monomer”.
